Active and inactive are the calls of the source.
Assays:
[1] = A cytotoxicity screen of small molecule inhibitors of the PhoP region in Salmonella typhi identified in the primary screen. [Related pubchem assays: 1850, 1864, 1985 ]; format: functional
Cytochrome P450 3A4 [2] = biological target: T1, Cytochrome P450 3A4 (Homo sapiens, UniProt P08684); details: Potency
[3] = biological target: Induced myeloid leukemia cell differentiation protein Mcl-1 (Homo sapiens, UniProt Q07820); format: functional
Induced myeloid leukemia cell differentiation protein Mcl-1, sequence (Q07820 whole entry): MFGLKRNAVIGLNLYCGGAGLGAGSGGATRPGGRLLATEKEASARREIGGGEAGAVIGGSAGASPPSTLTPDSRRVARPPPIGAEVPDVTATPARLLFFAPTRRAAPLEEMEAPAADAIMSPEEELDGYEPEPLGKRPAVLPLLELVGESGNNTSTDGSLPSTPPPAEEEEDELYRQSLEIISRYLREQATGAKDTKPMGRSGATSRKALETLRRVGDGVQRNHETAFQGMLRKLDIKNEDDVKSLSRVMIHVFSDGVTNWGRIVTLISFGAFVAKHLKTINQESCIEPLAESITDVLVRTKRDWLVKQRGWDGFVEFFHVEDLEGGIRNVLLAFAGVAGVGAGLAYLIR

[4] = cytotoxicity in HEK-293T cells, dose response, cytotoxicity control for TCR NF-kB inhibitor project, luminescence, T-cell screen hits (AID 489026); format: functional, cell-based;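 further: cells exposed to compound about 14 hours before the viability readout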
Protein skinhead-1 = biological target: T2, Protein skinhead-1 (Caenorhabditis elegans, UniProt P34707); format: functional
T2 sequence (P34707 whole entry): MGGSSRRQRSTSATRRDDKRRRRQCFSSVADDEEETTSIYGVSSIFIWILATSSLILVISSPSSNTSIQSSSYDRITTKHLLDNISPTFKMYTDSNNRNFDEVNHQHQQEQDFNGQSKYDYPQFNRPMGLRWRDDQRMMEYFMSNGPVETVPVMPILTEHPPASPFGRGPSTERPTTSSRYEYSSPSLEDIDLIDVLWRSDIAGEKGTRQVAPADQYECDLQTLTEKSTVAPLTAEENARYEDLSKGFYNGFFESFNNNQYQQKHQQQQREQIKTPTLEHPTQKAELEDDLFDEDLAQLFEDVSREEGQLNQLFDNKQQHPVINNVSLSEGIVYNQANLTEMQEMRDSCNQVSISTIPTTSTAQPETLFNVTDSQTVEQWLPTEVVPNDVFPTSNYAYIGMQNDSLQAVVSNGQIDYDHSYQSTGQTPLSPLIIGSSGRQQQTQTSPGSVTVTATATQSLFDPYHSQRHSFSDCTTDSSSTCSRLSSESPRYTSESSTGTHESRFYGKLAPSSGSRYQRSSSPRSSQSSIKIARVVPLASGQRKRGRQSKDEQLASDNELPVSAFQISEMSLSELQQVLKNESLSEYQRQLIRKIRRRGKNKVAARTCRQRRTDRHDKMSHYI

Cytochrome P450 2D6 = Cytochrome P450 2D6 (Homo sapiens, UniProt P10635);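 further: CYP2D6 member of a cytochrome P450 panel assay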
Cytochrome P450 2D6, sequence (P10635 whole entry): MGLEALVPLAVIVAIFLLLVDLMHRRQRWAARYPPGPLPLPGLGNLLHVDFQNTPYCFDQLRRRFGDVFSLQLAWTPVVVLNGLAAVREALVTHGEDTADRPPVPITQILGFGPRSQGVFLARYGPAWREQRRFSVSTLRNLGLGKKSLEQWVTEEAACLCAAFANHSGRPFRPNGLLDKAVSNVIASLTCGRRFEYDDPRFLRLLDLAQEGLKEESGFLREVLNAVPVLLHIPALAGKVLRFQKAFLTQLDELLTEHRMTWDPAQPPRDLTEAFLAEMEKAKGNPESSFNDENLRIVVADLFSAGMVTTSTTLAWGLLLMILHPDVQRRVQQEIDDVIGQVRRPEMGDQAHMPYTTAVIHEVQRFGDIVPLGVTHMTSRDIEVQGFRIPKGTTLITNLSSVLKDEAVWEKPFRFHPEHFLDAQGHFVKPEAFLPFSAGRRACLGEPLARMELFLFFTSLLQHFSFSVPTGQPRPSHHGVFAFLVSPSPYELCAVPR

Leucine aminopeptidase = biological target: T3, Leucine aminopeptidase (Plasmodium falciparum 3D7, UniProt Q8IL11); test: P. falciparum M17LAP inhibitors, primary screen, biochemical, fluorogenic H-Leu-NHMec substrate, 1536-well (AID 1619); format: functional
T3 sequence (Q8IL11 whole entry): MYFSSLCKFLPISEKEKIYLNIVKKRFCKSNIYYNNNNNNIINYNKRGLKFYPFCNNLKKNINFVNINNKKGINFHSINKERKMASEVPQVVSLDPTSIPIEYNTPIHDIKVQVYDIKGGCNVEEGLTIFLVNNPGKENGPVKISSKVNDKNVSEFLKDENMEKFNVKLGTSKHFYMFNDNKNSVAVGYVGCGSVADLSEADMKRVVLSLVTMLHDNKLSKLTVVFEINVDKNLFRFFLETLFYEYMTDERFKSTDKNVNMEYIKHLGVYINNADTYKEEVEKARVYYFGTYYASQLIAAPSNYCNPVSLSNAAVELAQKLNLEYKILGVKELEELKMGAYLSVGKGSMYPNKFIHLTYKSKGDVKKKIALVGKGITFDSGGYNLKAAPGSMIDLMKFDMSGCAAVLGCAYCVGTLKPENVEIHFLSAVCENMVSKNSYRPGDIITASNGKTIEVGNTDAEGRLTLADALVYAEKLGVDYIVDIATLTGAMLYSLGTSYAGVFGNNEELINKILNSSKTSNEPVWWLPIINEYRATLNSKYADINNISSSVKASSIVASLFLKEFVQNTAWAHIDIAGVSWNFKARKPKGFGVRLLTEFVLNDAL

[5] = biological target: T4, Calpain-2 catalytic subunit (Sus scrofa, UniProt P43367); test: pig calpain II inhibitor potency, dose response, biochemical, fluorogenic peptide substrate (AID 1420); format: functional
T4 sequence (P43367 whole entry): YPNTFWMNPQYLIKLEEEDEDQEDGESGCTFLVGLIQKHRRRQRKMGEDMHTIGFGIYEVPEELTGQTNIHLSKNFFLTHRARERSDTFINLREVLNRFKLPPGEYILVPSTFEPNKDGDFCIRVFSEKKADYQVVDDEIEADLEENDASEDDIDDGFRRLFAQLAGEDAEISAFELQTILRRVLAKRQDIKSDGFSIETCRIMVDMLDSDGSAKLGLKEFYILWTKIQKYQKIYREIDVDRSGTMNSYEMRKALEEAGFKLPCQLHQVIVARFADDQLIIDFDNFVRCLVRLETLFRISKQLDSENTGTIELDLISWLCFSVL

Cytochrome P450 3A4 [6] = biological target: T1, Cytochrome P450 3A4
[7] = HEp-2 cell cytotoxicity, dose response, cytotoxicity control for RSV inhibitor project, HTS (AID 2410); format: functional; details: human respiratory syncytial virus
[8] = intracellular Trypanosoma cruzi inhibitors in host cells – cell-based, plate reader, cherry-pick samples, set 3, dose response (AID 651818); format: functional;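 further: compounds incubated with infected cells for about four days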
[9] = inhibitors of HIV Env-driven cell fusion, dose response, cherry-pick (AID 652057); format: functional, cell-based
[10] = ZM109 Env clade C HIV-1 fusion inhibitors, dose response, HeLa effector, CEM target cells, luciferase, cherry-pick (AID 652058); format: functional, cell-based
[11] = inhibitors of clade B AD8 Env fusion, dose response, cell-based, cherry-pick (AID 652062); format: functional;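 further: luciferase signal from cell-cell fusion driven by HIV-1 clade B AD8 Env; potency is for inhibitors of fusion seen as a drop in luminescence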

T1 sequence (P08684 whole entry): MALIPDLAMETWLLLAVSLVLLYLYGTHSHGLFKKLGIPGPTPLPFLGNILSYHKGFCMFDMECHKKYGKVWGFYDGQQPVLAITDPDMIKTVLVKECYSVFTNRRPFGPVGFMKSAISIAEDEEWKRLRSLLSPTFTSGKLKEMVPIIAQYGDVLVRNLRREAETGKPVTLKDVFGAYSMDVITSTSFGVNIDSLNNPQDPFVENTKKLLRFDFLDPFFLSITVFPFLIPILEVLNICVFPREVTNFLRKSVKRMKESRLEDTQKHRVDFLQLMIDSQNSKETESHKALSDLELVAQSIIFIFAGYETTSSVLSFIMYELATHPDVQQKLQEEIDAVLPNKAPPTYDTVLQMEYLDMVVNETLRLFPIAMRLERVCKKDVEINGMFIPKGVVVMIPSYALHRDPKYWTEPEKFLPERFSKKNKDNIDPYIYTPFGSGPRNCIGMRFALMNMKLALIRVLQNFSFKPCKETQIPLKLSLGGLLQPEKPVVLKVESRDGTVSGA

Structure (SMILES): O=C(C[n+]1ccc(-c2ccccc2)cc1)Nc1ccc([N+](=O)[O-])cc1
- EC50 [1]: > 50 µM (active)

Structure (SMILES): CCC12C=CCN3CCC4(c5ccc(OC)cc5N(C)C4[C@@](O)(C(=O)OC)C1OC(C)=O)C32 (stereo partly specified)
- AC50 (Cytochrome P450 3A4 [2]): 3.98 µM (inconclusive)

Structure (SMILES): Cc1nc(N2CCOCC2)c2nc(-c3ccccc3)n(CCCN3CCCCC3C)c2n1 (stereo unspecified)
- AC50 (Cytochrome P450 3A4 [2]): 15.8 µM (inconclusive)

Structure (SMILES): COCCN1Cc2cccc(C(=O)Nc3cccc(C)c3C)c2C1=O
- IC50 [3]: 6.79 µM (not active)

Structure (SMILES): CCN(CC)C(=O)C(=O)c1cn(CC(=O)N2CCc3ccccc3C2)c2ccccc12
- EC50 [1]: > 50 µM (active)

Structure (SMILES): CC(=O)OC1CC2C(C)(C)C(=O)[C@@H]3OC3[C@@]2(C)C2CC[C@]3(C)C(=CC(=O)OC3c3ccoc3)[C@]12C (stereo partly specified)
- AC50 (Cytochrome P450 3A4 [2]): 15.8 µM (inconclusive)

Structure (SMILES): C/C=C(\C)C(=O)N[C@@H](c1ccccc1)[C@@H](O)C(=O)O[C@H]1C[C@@]2(O)[C@@H](OC(=O)c3ccccc3)C3[C@](C)(C(=O)[C@H](OC(C)=O)C(=C1C)C2(C)C)[C@@H](O)C[C@H]1OC[C@@]31OC(C)=O (stereo partly specified)
- IC50 [4]: > 80 µM (inactive)

Structure (SMILES): O=C(Nc1nc2ccccc2s1)c1ccccc1
- IC50 (Protein skinhead-1): > 100 µM (inactive)

Structure (SMILES): CC1CCc2c(C(=O)Nc3nccs3)csc2C1 (stereo unspecified)
- IC50 (Protein skinhead-1): > 100 µM (inactive)
- AC50 (Cytochrome P450 2D6): 3.55 µM (inconclusive)

Structure (SMILES): Cn1c(NC(=O)/C=C\c2ccccc2)cc(=O)n(C)c1=O
- IC50 (Leucine aminopeptidase): 78.4 µM (active)
- IC50 [5]: 7.1 µM (not active)

Structure (SMILES): COC(=O)CCC(=O)NC(=S)Nc1sc(C)c(C)c1C(N)=O
- IC50 [4]: > 80 µM (inactive)

Structure (SMILES): COc1ccc(C(=O)c2oc3ccc(OC)cc3c2N)cc1
- IC50 (Protein skinhead-1): > 100 µM (inactive)

Structure (SMILES): Cc1nnc(SCC(=O)Nc2cc(S(=O)(=O)N3CCCC3)ccc2Cl)s1
- EC50 [1]: > 50 µM (active)

Structure (SMILES): COc1ccc(OC2C=CC(c3ccccc3)OC2CO)c(C(C)=O)c1 (stereo unspecified)
- AC50 (Cytochrome P450 3A4 [2]): 3.98 µM (inconclusive)

Structure (SMILES): CC(=O)OC1=C(O)C(=O)c2ccccc2C1=O
- EC50 [1]: > 50 µM (active)

Structure (SMILES): Nc1ccc(C2=Nc3cccc4cccc(c34)N2)cc1
- IC50 [3]: 2.86 µM (active)

Structure (SMILES): O=C(NC(=S)Nc1cccc2c(O)cccc12)c1cccc(Br)c1
- IC50 (Protein skinhead-1): > 100 µM (inactive)

Structure (SMILES): O=S(=O)(Nc1ncccn1)c1ccc(NC(=S)Nc2ccc(Cl)cc2)cc1
- EC50 [1]: > 50 µM (active)

Structure (SMILES): COc1ccc(C2OCC3(COC(C)=O)C(C)C=C(C)C2C3C)cc1 (stereo unspecified)
- AC50 (Cytochrome P450 3A4 [2]): 15.8 µM (inconclusive)

Structure (SMILES): O=C1CSC(=S)N1c1cccc(O)c1
- EC50 [1]: > 50 µM (active)

Structure (SMILES): O=C(Cn1c(C(F)(F)F)nc2ccccc21)c1ccc(F)cc1
- IC50 (Protein skinhead-1): > 100 µM (inactive)
- AC50 (Cytochrome P450 3A4 [6]): 12.6 µM (inconclusive)

Structure (SMILES): Cc1ccc(-c2cc(C(F)F)n3ncc(C(=O)N4CCN(c5cccc(C)c5C)CC4)c3n2)cc1
- CC50 [7]: 10.2 µM (active)
- IC50 (Protein skinhead-1): > 100 µM (inactive)

Structure (SMILES): CNC[C@H]1Oc2c(NC(=O)Nc3ccc(OC)cc3)cccc2C(=O)N([C@H](C)CO)C[C@@H]1C
- AC50 [8]: 20 µM (inactive)

Structure (SMILES): C[C@@H]1CN([C@@H](C)CO)C(=O)c2cccc(NC(=O)Nc3ccc4c(c3)OCO4)c2O[C@@H]1CN(C)Cc1ccc(C(=O)Nc2ccccc2N)cc1
- AC50 [8]: 3.18 µM (active)

Structure (SMILES): C[C@@H]1CN([C@@H](C)CO)C(=O)c2cccc(NC(=O)Nc3ccc(C(F)(F)F)cc3)c2O[C@@H]1CN(C)Cc1ccc(C(=O)Nc2ccccc2N)cc1
- AC50 [8]: 0.787 µM (active)

Structure (SMILES): C[C@@H]1CCCCO[C@H](CN(C)Cc2ccc(C(=O)Nc3ccccc3N)cc2)[C@@H](C)CN([C@H](C)CO)C(=O)c2cc(NS(=O)(=O)c3ccc(F)cc3)ccc2O1
- AC50 [8]: 1.83 µM (active)

Structure (SMILES): C[C@@H]1CN([C@H](C)CO)C(=O)Cc2cc(NC(=O)Nc3ccc4c(c3)OCO4)ccc2O[C@@H]1CN(C)Cc1ccc(Oc2ccccc2)cc1
- AC50 [8]: 2.87 µM (active)

Structure (SMILES): CO[C@@H](CN(C)S(=O)(=O)c1ccc(Cl)cc1)[C@H](C)CN([C@@H](C)CO)S(=O)(=O)c1cccc(Cl)c1
- AC50 [9]: 20 µM (active)
- AC50 [10]: 19.1 µM (active)
- AC50 [11]: 8.73 µM (active)

Structure (SMILES): COC(=O)c1ccc(NC(=O)CO/N=C2\CCCc3nonc32)cc1
- EC50 [1]: > 50 µM (active)

Structure (SMILES): Oc1ccccc1O [CATECHOL]
- AC50 (Cytochrome P450 3A4 [2]): 10 µM (inconclusive)

Reference: ChEMBL document CHEMBL1201862, “PubChem BioAssay data set” (2004)
